Assay in all cases: NCI-60 cell line screen, 48 h
For experiment [1], the system named is CAKI-1 renal.
Experiment [2] relates to HCT-15 colon.
Experiment [3] relates to M14 melanoma.
The subject of experiment [4] is MCF7 breast.
Experiment [5] concerns MDA-MB-435.
The test system of experiment [6] is NCI-H460 lung.
Experiment [7] concerns OVCAR-4 ovarian.
Experiment [8] deals with OVCAR-5 ovarian.
The subject of experiment [9] is SF-268 CNS.
Experiment [10] has as its system SF-539 CNS.
The subject of experiment [11] is SK-MEL-28 melanoma.
For experiment [12], the system named is SK-OV-3 ovarian.

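Five concentrations, 48 hours, 96-well plates. TGI: total growth inhibition.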

For `CC(C)(C)OC(=O)N1C(C2=COc3ccccc3O2)=COc2ccccc21`, the TGI in experiment [1] is over 100 µM; in experiment [2] it was over 100 µM; in experiment [3] it was over 100 µM; in [4] it was 60.2 µM; in experiment [5], over 100 µM; in [6], over 100 µM. The TGI in experiment [7] was over 100 µM; in [8] it was 99.1 µM; in [9], 64.4 µM; in experiment [10], 41.2 µM; in [11] it was 87.5 µM; in experiment [12], over 100 µM.

With `CCCCC1Cc2cc(O)ccc2-c2n1c1cc(O)ccc1[n+]2C` (configuration not stated) (tested in a mixture with another compound), the TGI in experiment [1] was over 100 µM; in [2], over 88.3 µM; in experiment [3], over 100 µM; in experiment [4] it was over 72.7 µM; in [5], 59.6 µM; in experiment [6] it was over 100 µM. Besides, the TGI is 97.6 µM in [7]; over 100 µM in [8]; over 59.5 µM in experiment [9]; over 100 µM in experiment [10]; 74.3 µM in [11]; over 100 µM in experiment [12].

Regarding `C1CNCCN2CCCNCCN(C1)CC2`, the TGI in experiment [1], in experiment [2], in [3], in [4], in experiment [5] and in experiment [6] was over 100 µM each time. Further, the TGI in [7], in [8], in experiment [9], in [10], in experiment [11] and in experiment [12] was over 100 µM throughout.

For the compound `c1ccc(Cc2cccc3cc(-c4ccc(-c5ccccc5)cc4)[nH]c23)cc1`, the TGI in [1], in experiment [2], in experiment [3], in experiment [4], in [5] and in experiment [6] was over 100 µM in each case. The TGI in experiment [7], in experiment [8], in [9], in experiment [10], in experiment [11] and in experiment [12] was over 100 µM each time.

With `CCN(CC)CC(O)c1ccc2ccc3ccccc3c2c1` (configuration not stated), the TGI in experiment [1] was found to be 26.6 µM; in [2], 33.2 µM; in [3], 30.9 µM; in experiment [4] it was 28.2 µM; in experiment [5] it was 31.3 µM; in [6], 32.7 µM. The TGI in experiment [7] worked out at 35.3 µM; in experiment [8], 27.5 µM; in experiment [9], 34.7 µM; in experiment [10], 25.8 µM; in experiment [11] it was 34.6 µM; in [12], 29.5 µM.

Turning to `Cc1c2c(c(C)c3c[n+](C)ccc13)Oc1ccccc1O2`, the TGI in [1] is over 100 µM; in experiment [2], over 100 µM; in experiment [3], over 59.7 µM; in experiment [4], over 63 µM; in experiment [5] it was 34.1 µM; in experiment [6], 16.4 µM. Besides, the TGI in [7] was 28.2 µM; in experiment [8], over 31.6 µM; in experiment [9], 11.8 µM; in [10], 22.4 µM; in [11], 28.6 µM; in [12], over 84.5 µM.

With `COC(=O)C12CCC(C(=O)OC)(Cc3c(c4ccccc4n3S(=O)(=O)c3ccccc3)C1)C2=O` (configuration not stated), the TGI in experiment [1], in experiment [2], in experiment [3], in experiment [4], in [5] and in experiment [6] was over 100 µM throughout. In addition, the TGI in experiment [7] was over 100 µM; in experiment [8], over 94.6 µM; in [9], over 100 µM; in [10] it was over 67.3 µM; in experiment [11], over 100 µM; in experiment [12] it was over 100 µM.

Take `CCOC(=O)C(SCCO)C(C(=O)OCC)n1ccc(N)nc1=O` (configuration not stated): the TGI in experiment [1], in [2], in experiment [3], in [4], in [5] and in experiment [6] was over 100 µM in each case. Moreover, the TGI in experiment [7], in experiment [8], in experiment [9], in [10], in experiment [11] and in experiment [12] was over 100 µM each time.

`C/C(Cl)=N\OC(=O)Nc1ccc([N+](=O)[O-])cc1`: the TGI was 9.79 µM in [1]; 34.2 µM in experiment [2]; 26.1 µM in experiment [3]; 5.73 µM in [4]; 32.9 µM in experiment [5]; 38.8 µM in [6]. The TGI in [7] is 28.2 µM; in [8] it was 30.8 µM; in experiment [9], 41.8 µM; in experiment [10], 31.8 µM; in experiment [11], 31.5 µM; in [12], over 32.6 µM.

As for `CS(C)(=O)=N/C=C\C(=O)C(Cl)(Cl)Cl`, the TGI in [1], in [2], in experiment [3], in experiment [4], in experiment [5] and in [6] was over 100 µM throughout. The TGI in experiment [7], in experiment [8], in experiment [9], in experiment [10], in experiment [11] and in experiment [12] was over 100 µM each time.

For the compound `CC1=CC(c2ccccc2)OP1(=O)c1ccccc1` (configuration not stated), the TGI in experiment [1], in experiment [2], in [3], in [4], in experiment [5] and in [6] was over 100 µM in each case. Further, the TGI in experiment [7], in experiment [8], in [9], in experiment [10], in [11] and in [12] was over 100 µM each time.

These data come from PubChem BioAssay (NCI).
